This is an account of results in ChEMBL document CHEMBL1140562, “Anti-AIDS agents 73: structure-activity relationship study and asymmetric synthesis of 3-O-monomethylsuccinyl-betulinic acid derivatives” (Bioorg Med Chem Lett, 2007).

Series [1] in a line: Therapeutic index, ratio of IC50 for MT2 cells to EC50 for HIV1. It counts as cell-based. The settings on record: human, read-out: Ratio IC50/EC50.
The subject of series [2] is Human immunodeficiency virus 1. Put plainly: Antiviral activity against HIV1. The class given is functional, organism-based.
The test system of the next series is MT2. Description: Cytotoxicity against MT2 cells by XTT assay. The class given is functional, cell-based. Particulars: Homo sapiens. A general note: Formazan colour is commonly taken as a measure of viable cells.

For orientation: EC50 means the concentration that produces a half-maximal response. A lower EC50 goes with higher potency in that assay. As usually defined, the IC50 is the concentration needed to halve the response being measured.

Active and inactive are the calls of the source. The calls are words filed in the database; no cut-off is given here.

In the case of `C=C(C)[C@@H]1CC[C@]2(C(=O)O)CC[C@]3(C)[C@H](CC[C@@H]4[C@@]5(C)CC[C@H](OC(=O)[C@@H](C)CC(=O)O)C(C)(C)[C@@H]5CC[C@]43C)[C@@H]12`, the selectivity ratio in series [1] came out at 100. The same compound registered an EC50 in series [2] of 440 nM. The compound also came in with an IC50 in the series with MT2 of more than 43.8 µM.
For the compound `C=C(C)[C@@H]1CC[C@]2(C(=O)O)CC[C@]3(C)[C@H](CC[C@@H]4[C@@]5(C)CC[C@H](OC(=O)[C@H](C)CC(=O)O)C(C)(C)[C@@H]5CC[C@]43C)[C@@H]12`, the outcome in series [2] was inactive. For the same compound, in the series with MT2, the IC50 was more than 43.8 µM.
For `Cc1cn([C@H]2C[C@H](N=[N+]=[N-])[C@@H](CO)O2)c(=O)[nH]c1=O` [ZIDOVUDINE], the EC50 in series [2] worked out at 340 nM. In the series on MT2, 1870 µM corresponded to half-maximal inhibition (IC50).
In the case of `C=C(C)[C@@H]1CC[C@]2(C(=O)O)CC[C@]3(C)[C@H](CC[C@@H]4[C@@]5(C)CC[C@H](OC(=O)C[C@@H](C)C(=O)O)C(C)(C)[C@@H]5CC[C@]43C)[C@@H]12`, the selectivity ratio in series [1] came out at 961. Also, the midpoint of the response in series [2], the EC50, lay at 120 nM. Further, in the series on MT2, the IC50 is more than 43.8 µM.
With `C=C(C)[C@@H]1CC[C@]2(C(=O)O)CC[C@]3(C)[C@H](CC[C@@H]4[C@@]5(C)CC[C@H](OC(=O)C[C@H](C)CO)C(C)(C)[C@@H]5CC[C@]43C)[C@@H]12`, the outcome in series [2] was inactive. In the series with MT2, this compound came in with an IC50 of more than 44.9 µM.
As for `C=C(C)[C@@H]1CC[C@]2(C(=O)O)CC[C@]3(C)[C@H](CC[C@@H]4[C@@]5(C)CC[C@H](OC(=O)CC(C)(C)C(=O)O)C(C)(C)[C@@H]5CC[C@]43C)[C@@H]12` [BEVIRIMAT], the selectivity ratio in series [1] was 30600. Moreover, the EC50 in series [2] was 1.3 nM. The same compound returned an IC50 with MT2 of more than 42.8 µM.
The like results for `C=C(C)[C@@H]1CC[C@]2(C(=O)O)CC[C@]3(C)[C@H](CC[C@@H]4[C@@]5(C)CC[C@H](OC(=O)C[C@H](C)C(=O)O)C(C)(C)[C@@H]5CC[C@]43C)[C@@H]12` were, in that order, 6270, 8.7 nM and 32.8 µM.
With `C=C(C)[C@@H]1CC[C@]2(C(=O)O)CC[C@]3(C)[C@H](CC[C@@H]4[C@@]5(C)CC[C@H](OC(=O)CC(C)C(=O)O)C(C)(C)[C@@H]5CC[C@]43C)[C@@H]12` (stereo partly specified), the selectivity ratio in series [1] was determined as 5320. In series [2], this compound registered an EC50 of 16 nM. This compound yielded an IC50 in the series with MT2 of more than 44.9 µM.
